The source of these data is patent US20260191998A1, “INDOLE PHTHALOCYANINE COMPOUND, PREPARATION METHOD THEREFOR, AND USE THEREOF IN TUMOR DIAGNOSIS IMAGING” (JIANGSU YAHONG MEDITECH CO., LTD., priority 2022, published 2026).

Some results are limits rather than exact numbers.

Series [1] can be described thus: Kinetic solubility in phosphate buffered saline (HPLC). It counts as physicochemical. The note with it: phosphate buffered saline (PBS), aqueous buffer, kinetic from dmso stock, 25° C., shaken 2 hours, from 10 mM DMSO stock. As to the method:
The compounds were weighed in an appropriate amount and dissolved in DMSO to prepare a 10 mM stock solution. 30 μL of the stock solution was taken and 970 μL of phosphate buffered saline solution (PBS) was added thereto. The solution was shaken at 25° C. on a thermostatic mixer for 2 hours, and centrifuged at 12000 rpm for 10 minutes. The supernatant was taken, and the kinetic solubility of each compound in phosphate buffered saline solution (PBS) was determined by Waters Acquity Arc HPLC.

In another series the target is hERG channels (Homo sapiens, UniProt Q12809). As to the kind of experiment: hERG whole-cell patch clamp in HEK 293 cells stably expressing hERG. The series is classed as cell-based. The conditions noted are these: HEK 293 stably expressing hERG, tail current. The procedure:
The HEK 293 cell line (K1236) stably expressing hERG was purchased from Invitrogen. Cells were cultured in 85% DMEM, 10% dialyzed FBS, 0.1 mM NEAA, 25 mM HEPES, 100 U/mL penicillin-streptomycin, 5 μg/mL blasticidin and 400 μg/mL geneticin. Cells were split using TrypLE™ about three times a week, and maintained at a confluence of about 40% to about 80%. Before measurement, cells were cultured at a density of 5×10^5 in a 6 cm culture dish and induced with 1 μg/mL doxycycline for 48 hours.
Extracellular solution (mM): 132 NaCl, 4 KCl, […], 0.5 MgCl2, 11.1 glucose, 10 HEPES (pH 7.35 adjusted with NaOH);
Intercellular solution (mM): 140 KCl, 2 MgCl2, 10 EGTA, 10 HEPES, 5 MgATP (pH 7.35 adjusted with KOH).
The test compounds were formulated in DMSO to prepare a stock solution with a final concentration of 10 mM.
Then, the stock solution of each compound was diluted with DMSO in a 1:3 serial dilution to prepare five intermediate solutions with concentrations of 3, 1, 0.33, 0.12, 0.04 mM or 3.33, 1.11, 0.37, 0.12 mM, respectively.
Before testing, the final working solutions were prepared by diluting the intermediate solutions 1000 times with the extracellular solution. The concentration of DMSO in the working solutions was within a range around 0.1%.
The working solutions at five different concentrations of 3, 1, 0.33, 0.12 and 0.04 μM were used to determine the potential inhibition effect of the compounds on hERG channels and to fit concentration-response curves and calculate IC50.
The coverslip was removed from the cell culture dish and placed on a microscope stage.
A 10× objective was used to locate cells to be observed. An electrode tip was located under the microscope using the 10× objective by focusing above the plane of the cells. Once the tip was in focus, the electrode was advanced downward towards the cells under rough control of the manipulator, while the objective was moved so as to keep the tip in focus.
When the electrode was directly over a cell, the objective was switched to a 40× objective and fine control of the manipulator was used to enable to gradually approach the cell surface.
With gentle suction through a side port of an electrode holder, a giga-ohm seal was formed.
Cfast was used to eliminate the capacitive current consistent with the voltage step. Brief and strong suction was applied repeatedly until the membrane patch ruptured and the whole-cell configuration was obtained.
At this point, membrane potential was set to −60 mV in order to ensure that hERG channels were not open. Then, Cslow on the amplifier was used to remove the spikes of capacitive current.
Holding potential was set to −90 mV for 500 ms. Current was recorded at 20 kHz and filtering was carried out at 10 kHz. Leak current was tested at −80 mV for 500 ms.
The hERG current was elicited by depolarizing at +30 mV for 4.8 seconds, and then the voltage was restored to −50 mV for 5.2 seconds to remove the inactivation and observe the deactivating tail current. The maximum of tail current size was used to determine hERG current amplitude.
Current was recorded for 120 seconds to evaluate the current stability. Only stable cells with recording parameters above thresholds were used for drug administrations.
Firstly, vehicle control was applied to the cells to establish the baseline. […] The hERG current in the presence of the test compound was recorded for about 5 minutes to reach a steady state, and then 5 sweeps were captured. For dose-response testing, multiple compounds were applied to the cells cumulatively from low to high concentrations (multiple compounds were detected simultaneously). The positive control, Dofetilide at a concentration of 150 nM, was also applied to each cell post hERG current measurement at the highest concentration of the test compound, which was used as an internal low control for normalization of percentage inhibition. […]
(In general: hERG is a cardiac potassium channel; its block is linked to QT prolongation.)

A short description of series [2]: UV-VIS absorption spectra (optical property test). It counts as physicochemical. The conditions noted are these: 10 μM, DMSO solution; for Absorbance × 10^4: at maximum absorption peak. The procedure:
The UV-VIS absorption spectra of the compounds (10 μM, DMSO solution) were detected using Shimadzu UV2600 spectrophotometer, and the maximum absorption peak and absorbance of each compound were obtained.

Series [3] is described as follows: MRC5 proliferation test (CellTiter-Glo). The series is classed as cell-based. The conditions noted are these: human, MRC5 cells (normal cells), 3 days incubation, read-out: MRC5 (IC50, nM), inhibitory effect on proliferation of normal cells. An excerpt: • MRC5 (ATCC; Cat. No.: CCL-171)
• Culture medium EMEM (ATCC, 30-2003) • Fetal bovine serum (Gibco, 10091148) • Penicillin-streptomycin double antibody (Gibco, S110JV) • DPBS (Gibco, 14190-144) • CellTiter-Glo® assay kit (Promega, G7573) • Trypsin (0.25%) (Gibco, 25200-056) • DMSO (Sigma, D2650)
• Biosafety cabinet (AIRTECH, BSC-1300A II) • Automated cell counter (Life Technologies, countess II) • Multifunctional microplate reader (Biotek, H1FM) • Shaker (Hangzhou Allsheng Instruments Co., Ltd., OS-100) • XLFIT 5.3 (Shanghai Inforstack Co., Ltd.)
For this test method, the following experiment was performed in a biosafety cabinet with the specific steps as follows. • (1) Cells were seeded in a […] (in which the culture medium was EMEM). One day later, the previous culture medium EMEM was poured off, and 5 mL of DPBS was added to wash the cells. Then DPBS was pipetted and discarded. An appropriate amount of trypsin was then added. The plate was placed in a 5% CO2 cell incubator at 37° C. to digestion for about 2 to 5 minutes, and then taken out. New culture medium EMEM was added. The cells were pipetted up and down to resuspend evenly. The cells were then counted by an automated cell counter. • (2) Cells were seeded in columns 1 to 11 of a 96-well plate (Corning, Cat. No. 3610) at a density of 3000 cells per well in 100 μL of culture medium EMEM, and 100 μL of culture medium EMEM free of cells was added into column 12 of the wells. Then, the plate was placed in the 5% CO2 incubator at 37° C. for 24 hours. • (3) Next, the compound of the present invention was 2-fold serially diluted into 8 dose points starting at 10 μM. 10 μL of the serially diluted compound was pipetted and added to 100 μL of cells in columns 1 to 10, and 10 μL of the culture medium EMEM containing 2% DMSO was added to both columns 11 and 12. The plate was placed in the 5% CO2 incubator at 37° C. and incubated for 3 days (Note: column 11 was used as a MAX well with cells but without the compound; column 12 was used as a MIN well without both cell and compound). • (4) The cell viability detection reagent in the above CellTiter-Glo® assay kit was then added to the 96-well plate at 50 μL per well according to the instruction, and shaken on a shaker in dark for 5 to 10 minutes. The cell viability was then measured using a multifunctional microplate reader. Finally, the inhibition of the compound of the present invention on cell proliferation was plotted by XLFIT software, and the half inhibitory concentration, IC50 value of the compound of the present invention was calculated therefrom.
(In general: ATP-based viability assays read luminescence as a measure of living cells.)

Another series has as its system RT112 tumor. As to the kind of experiment: Tumor/background ratio in subcutaneous RT112 tumor model mice. The series is classed as in vivo. The conditions noted are these: 2 mpk intraperitoneal, 48 hours after injection. An excerpt: The subcutaneous tumor model mice inoculated with RT112 tumor were selected. Each compound was administrated at a dose of 2 mpk, and intraperitoneally injected.

Sequence of hERG channels (Q12809 whole entry): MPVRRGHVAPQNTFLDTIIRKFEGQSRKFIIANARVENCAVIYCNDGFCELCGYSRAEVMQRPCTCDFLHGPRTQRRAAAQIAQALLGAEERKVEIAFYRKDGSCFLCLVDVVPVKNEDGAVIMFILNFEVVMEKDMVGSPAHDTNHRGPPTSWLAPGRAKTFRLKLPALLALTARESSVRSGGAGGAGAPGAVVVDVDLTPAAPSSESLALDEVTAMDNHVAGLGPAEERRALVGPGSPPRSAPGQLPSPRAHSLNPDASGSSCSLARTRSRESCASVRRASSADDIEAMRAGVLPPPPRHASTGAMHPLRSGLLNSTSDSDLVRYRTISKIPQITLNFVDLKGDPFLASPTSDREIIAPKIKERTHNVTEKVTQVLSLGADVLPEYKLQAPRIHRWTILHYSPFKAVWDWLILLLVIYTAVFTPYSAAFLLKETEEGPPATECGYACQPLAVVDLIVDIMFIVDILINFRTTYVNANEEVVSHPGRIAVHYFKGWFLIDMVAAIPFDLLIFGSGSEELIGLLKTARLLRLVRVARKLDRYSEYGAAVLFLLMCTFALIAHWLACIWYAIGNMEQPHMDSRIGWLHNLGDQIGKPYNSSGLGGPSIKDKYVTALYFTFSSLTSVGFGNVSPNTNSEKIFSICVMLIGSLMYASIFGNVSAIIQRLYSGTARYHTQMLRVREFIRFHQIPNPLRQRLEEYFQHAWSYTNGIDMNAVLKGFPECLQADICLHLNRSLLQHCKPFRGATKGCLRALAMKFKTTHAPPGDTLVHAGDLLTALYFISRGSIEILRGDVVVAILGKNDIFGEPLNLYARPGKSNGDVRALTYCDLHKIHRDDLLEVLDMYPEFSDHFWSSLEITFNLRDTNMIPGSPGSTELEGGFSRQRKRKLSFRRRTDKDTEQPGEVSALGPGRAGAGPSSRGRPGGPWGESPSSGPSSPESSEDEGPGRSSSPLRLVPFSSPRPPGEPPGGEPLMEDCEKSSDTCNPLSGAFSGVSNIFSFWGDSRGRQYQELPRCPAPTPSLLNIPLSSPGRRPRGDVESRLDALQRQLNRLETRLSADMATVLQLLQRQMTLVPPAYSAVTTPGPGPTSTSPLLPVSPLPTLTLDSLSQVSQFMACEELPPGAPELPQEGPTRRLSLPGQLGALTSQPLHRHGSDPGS

Regarding `CN(C)C1CC(/C=C/C2=[N+](C)c3ccccc3C2(C)C)=C(Cl)C(=C/C=C2/N(CCCCCC(=O)O)c3ccccc3C2(C)C)/C1` (stereo not drawn) [Example 87], the kinetic solubility (commonly the concentration staying in solution when a stock, usually in DMSO, is diluted into the medium) at 2 h in series [1] is 38 µg/mL. At hERG channels, this compound yielded an IC50 of 1420 nM. For the same compound, in series [2], the Absorption peak amounted to 785 nm and the “Absorbance × 10^4” value is 1.91. The IC50 at 3 days in series [3] is greater than 10000 nM. Besides, the Tumor/background ratio in the series with RT112 tumor was 3.3.

Compound `COCCOCCN1/C(=C/C=C2\CCCC(/C=C/C3=[N+](CCOCCOCCC(=O)O)c4ccccc4C3(C)C)=C2Cl)C(C)(C)c2ccccc21` [Example 68, 1-(2-(2-(2-carboxyethoxy)ethoxy)ethyl)-2-((E)-2-((E)-2-chloro-3-(2-((E)-1-(2-(2-methoxyethoxy)ethyl)-3,3-dimethylindolin-2-ylidene)ethenyl)cyclohex-1-en-1-yl)ethenyl)-3,3-dimethyl-3H-indol-1-ium 2,2,2-trifluoroacetate] showed a kinetic solubility at 2 h in series [1] greater than 250 µg/mL. For the same compound, the IC50 against hERG channels stood at 890 nM. In series [2], the Absorption peak was 796 nm and the “Absorbance × 10^4” value worked out at 2.74. In addition, in series [3], the IC50 at 3 days was greater than 10000 nM. In the series on RT112 tumor, the Tumor/background ratio was 2.5.

In series [1], `C[N+]1=C(/C=C/C2=C(Cl)C(=C/C=C3/N(CCOCCC(=O)Oc4ccccc4)c4ccccc4C3(C)C)/CCC2)C(C)(C)c2ccccc21.[Cl-]` [Example 95] came in with a solubility (kinetic) at 2 h of 99 µg/mL. Also, the IC50 against hERG channels is 980 nM. Besides, in series [2], the Absorption peak amounted to 793.5 nm and the “Absorbance × 10^4” value was determined as 2.41. For the same compound, the IC50 at 3 days in series [3] is greater than 10000 nM. Besides, the Tumor/background ratio in the series on RT112 tumor is reported as 2.8.

With `CC[N+]1=C(/C=C/C2=C(Cl)C(=C/C=C3/N(CCCCCC(=O)Oc4ccccc4)c4ccccc4C3(C)C)/CCC2)C(C)(C)c2ccccc21.[Cl-]` [Comparative Example 1, 2-((E)-2-((E)-2-chloro-3-(2-((E)-3,3-dimethyl-1-(6-oxo-6-phenoxyhexyl)indolin-2-ylidene)ethenyl)cyclohex-1-en-1-yl)ethenyl)-1-ethyl-3,3-dimethyl-3H-indol-1-ium Chloride, reference compound], the kinetic solubility at 2 h in series [1] came to 5 µg/mL. This compound also gave an IC50 against hERG channels of less than 120 nM. Also, in series [2], the Absorption peak was found to be 794.5 nm and the “Absorbance × 10^4” value was determined as 2.16. Further, the IC50 at 3 days in series [3] amounted to 2700 nM. Further, in the series with RT112 tumor, the Tumor/background ratio is 2.4.

With `COCCOCCOCCN1/C(=C/C=C2\CCCC(/C=C/C3=[N+](CCOCCOCCC(=O)O)c4ccccc4C3(C)C)=C2Cl)C(C)(C)c2ccccc21` [Example 70], the solubility (kinetic) at 2 h in series [1] was greater than 250 µg/mL. The IC50 on hERG channels amounted to 568 nM. Also, in series [2], the Absorption peak is 796.5 nm and the “Absorbance × 10^4” value came out at 2.09. For the same compound, the IC50 at 3 days in series [3] is greater than 10000 nM. Besides, the Tumor/background ratio in the series on RT112 tumor stood at 2.7.

For `COCCOCCOCCOCCN1/C(=C/C=C2\CCCC(/C=C/C3=[N+](CCOCCOCCC(=O)O)c4ccccc4C3(C)C)=C2Cl)C(C)(C)c2ccccc21` [Example 73, 1-(2-(2-(2-carboxyethoxy)ethoxy)ethyl)-2-((E)-2-((E)-2-chloro-3-(2-((E)-3,3-dimethyl-1-(2,5,8,11-tetraoxatridecan-13-yl)indolin-2-ylidene)ethenyl)cyclohex-1-en-1-yl)ethenyl)-3,3-dimethyl-3H-indol-1-ium Chloride], the kinetic solubility at 2 h in series [1] is greater than 250 µg/mL. At hERG channels, this compound had an IC50 of 1660 nM. Further, in series [2], the Absorption peak stood at 796.5 nm and the “Absorbance × 10^4” value came to 2.15. For the same compound, the IC50 at 3 days in series [3] was greater than 10000 nM. Moreover, the Tumor/background ratio with RT112 tumor stood at 2.7.
